Assay results as given in US10695333B2 (NOVARTIS AG, priority 2017, dated 2020).
Several values for one entry are separate records, joined by “and”; a condition that tells them apart may be missing. Equal entries are not always repeated. Marks after values point to notes of the source that are not given here.

Assays:
[1] = test system: MCF-7 parental (ER wildtype) cells; assay: cells; details: Homo sapiens, MCF7, 168 h, read-out: MCF-7 proliferation Ave IC50, ESR1 WT
Description: Cell viability was determined by CellTiter-Glo (CTG) assay after 7 days of compound treatment. […] IC50 nM values were calculated using the XLfit software and are defined as the inflection point of the fitted inhibition curves.

[2] = test system: advanced or metastatic ER+ breast cancer; assay: Phase I/Ib study, anti-tumor activity; type: in vivo, human
From the text: (§1) Eligible patients, ≥18 years old, have histologically confirmed ER+ breast cancer that has progressed after endocrine therapy for metastatic or locally advanced disease or recurrence while on, or within 12 months of the end of adjuvant treatment with an aromatase inhibitor. […] As of Jul. […] As of Jul. 23, 2018, 13 patients continued ongoing treatment and 3 patients discontinued due to progressive disease.

[3] = test system: ER regulated transcripts GREB1 and PGR; assay: GREB1 and PGR mRNA in MCF-7 tumors after final dose; type: in vivo, mouse; details: higher dose levels, tumors collected 24 hours after final treatment on day 61, normalized to B2M
From the text: Data is plotted for individual animals and is normalized to expression of beta-2 microglobulin (B2M).

[4] = test system: ER target genes GREB1 and PGR; assay: qRT-PCR of ER target genes in MCF-7 WT cells
HBRX1298 xenograft = assay: ER+ primary breast cancer model HBRX1298 in NSG mice; type: in vivo, mouse; details: Day 63
Description: HBRX1298 tumors were established in NSG female mice by injection of a tumor brei into the inguinal mammary fat pad area. Mice were implanted with 0.72 mg estradiol/90-day release pellets several days prior to cell implantation. […] The 80 mg/kg QD dose inhibited tumor volumes close to the extent observed in mice with estradiol pellet removal (% ΔT/ΔC=32% and 21%, respectively; p<0.05).

[5] = Phase I/Ib study, safety and tolerability; type: in vivo, human
From the text: as §1

MCF-7 xenograft [6] = assay: Orthotopic MCF-7 xenograft model in NSG mice; type: in vivo, mouse; details: for Tumor response in words: LSZ102 20 mg/kg QD, tamoxifen 60 mg/kg, fulvestrant 5 mg/mouse
Description: Mice were supplemented with estradiol (0.72 mg estradiol/90-day release pellets) to further support MCF-7 tumor growth several days prior to cell implantation.

MCF-7 xenograft [7] = assay: Dose fractionation study in mice with MCF-7 xenografts; type: in vivo, mouse; details: for Tumor response ΔT/ΔC / Tumor response Regression: Day 61
MCF-7 xenograft [8] = assay: LSZ102 with alpelisib in orthotopic MCF-7 breast cancer model in mice; type: in vivo, mouse; details: Day 62
clinical = details: human, in vivo
From the text: Secondary objectives are to evaluate preliminary anti-tumor activity and looking at overall response rate (ORR), duration of response (DOR), progression-free survival (PFS), disease control rate (DCR), pharmacokinetics (PK) and pharmacodynamics (PD).

ERα = target: T1, ERα (Homo sapiens, UniProt P03372); details: MCF-7 parental cells, 24 hr treatment
T1 sequence (P03372 1-595): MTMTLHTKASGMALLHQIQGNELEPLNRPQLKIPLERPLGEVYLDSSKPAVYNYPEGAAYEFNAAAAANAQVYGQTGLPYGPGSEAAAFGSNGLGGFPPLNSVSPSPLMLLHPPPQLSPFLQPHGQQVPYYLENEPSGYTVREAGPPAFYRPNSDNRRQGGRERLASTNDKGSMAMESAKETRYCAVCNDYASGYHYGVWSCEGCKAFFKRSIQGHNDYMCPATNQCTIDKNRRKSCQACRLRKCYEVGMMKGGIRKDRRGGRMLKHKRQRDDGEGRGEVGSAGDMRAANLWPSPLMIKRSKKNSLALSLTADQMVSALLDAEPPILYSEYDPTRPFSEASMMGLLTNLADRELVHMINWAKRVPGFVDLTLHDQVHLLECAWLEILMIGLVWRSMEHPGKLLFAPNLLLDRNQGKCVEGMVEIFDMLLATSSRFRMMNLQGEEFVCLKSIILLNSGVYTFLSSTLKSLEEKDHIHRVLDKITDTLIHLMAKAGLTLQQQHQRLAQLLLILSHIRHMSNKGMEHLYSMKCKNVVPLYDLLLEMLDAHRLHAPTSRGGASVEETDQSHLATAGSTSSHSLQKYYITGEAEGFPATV

[9] = All LSZ102 single agent arm patients, evaluable n = 72
[10] = LSZ102 single agent arm (n = 74)
[11] = All Arm A treatment period patients (N = 73)
[12] = 60 mg/kg PO QD x 5 days x QWeek, Day 48

SMILES: CC(F)(F)c1cc(F)ccc1-c1sc2cc(O)ccc2c1Oc1ccc(/C=C/C(=O)O)cc1 [LSZ102, (E)-3-(4-((2-(2-(1,1-difluoroethyl)-4-fluorophenyl)-6-hydroxybenzo[b]thiophen-3-yl)oxy)phenyl)acrylic acid]
- IC50 [1]: 5.2 nM
- Complete response (CR) [2, 9]: 0 n (%)
- Disease control rate (DCR) [2, 9]: 27 (37.5%) n (%)
- Non-CR/Non-PD [2, 9]: 7 (9.7) n (%)
- Overall response rate (ORR) [2, 9]: 1 (1.4) n (%)
- Partial response (PR) [2, 9]: 1 (1.4) n (%)
- Progressive disease (PD) [2, 9]: 40 (55.6) n (%)
- Response unknown [2, 9]: 6 (8.3) n (%)
- Discontinuation due to progressive disease [2, 10]: 59 (79.7) n (%)
- Disease control rate ([2]; single-agent LSZ102): 37.5%
- Inhibition of GREB1 and PGR mRNA levels in tumors [3]: stronger inhibition
- ESR1 mRNA levels [4]: not significantly reduced
- mRNA expression of GREB1 and PGR [4]: dose response inhibition
- Tumor response ΔT/ΔC (HBRX1298 xenograft; 20 mg/kg PO QD): 45* %
- Tumor response ΔT/ΔC (HBRX1298 xenograft; 80 mg/kg PO QD): 32%
- DLT alanine aminotransferase increase, number of patients ([5]; 450 mg QD with food group): one
- DLT aspartate aminotransferase increase, number of patients ([5]; 450 mg QD with food group): one
- DLT vomiting, number of patients ([5]; 600 mg QD fasted group): one
- DLT diarrhea, number of patients ([5]; 900 mg QD fasted group): two
- Constipation, G1 [5, 11]: 7 (9.6) n (%)
- Constipation, G2 [5, 11]: 1 (1.4) n (%)
- Constipation, G3 [5, 11]: 0 n (%)
- Decrease appetite, G1 [5, 11]: 11 (15.1) n (%)
- Decrease appetite, G2 [5, 11]: 2 (2.7) n (%)
- Decrease appetite, G3 [5, 11]: 0 n (%)
- Diarrhea, G1 [5, 11]: 25 (34.2) n (%)
- Diarrhea, G2 [5, 11]: 11 (15.1) n (%)
- Diarrhea, G3 [5, 11]: 3 (4.1) n (%)
- Fatigue, G1 [5, 11]: 5 (6.8) n (%)
- Fatigue, G2 [5, 11]: 3 (4.1) n (%)
- Fatigue, G3 [5, 11]: 0 n (%)
- Nausea, G1 [5, 11]: 32 (43.8) n (%)
- Nausea, G2 [5, 11]: 10 (13.7) n (%)
- Nausea, G3 [5, 11]: 2 (2.7) n (%)
- Suspected related AEs, Total, G1 [5, 11]: 38 (52.1) n (%)
- Suspected related AEs, Total, G2 [5, 11]: 20 (27.4) n (%)
- Suspected related AEs, Total, G3 [5, 11]: 7 (9.6) n (%)
- Vomiting, G1 [5, 11]: 14 (19.2) n (%)
- Vomiting, G2 [5, 11]: 4 (5.5) n (%)
- Vomiting, G3 [5, 11]: 1 (1.4) n (%)
- Discontinuation due to adverse event [5, 10]: 2 (2.7) n (%)
- Tolerability ([5]; oral single agent, doses up to 600 mg QD and up to 300 mg BID): well tolerated
- Drug-related diarrhea, any grade ([5]; single agent Arm A): 53.4%
- Drug-related nausea, any grade ([5]; single agent Arm A): 60.2%
- Drug-related vomiting, any grade ([5]; single agent Arm A): 26.1%
- Drug-related Grade 3 vomiting ([5]; single agent Arm A, 1 patient): 1.4%
- Drug-related Grade 3 nausea ([5]; single agent Arm A, 2 patients): 2.7%
- Drug-related Grade 3 diarrhea ([5]; single agent Arm A, 3 patients): 4.1%
- Dose limiting toxicities (DLTs), patients ([5]; single agent, all dose groups, four patients): 5.9%
- Patients requiring dose reduction due to AEs ([5]; single agent, all gastrointestinal toxicities): seven
- Tumor response ΔT/ΔC (MCF-7 xenograft [6]; 1 mg/kg PO QD, Day 48): 56%
- Tumor response ΔT/ΔC (MCF-7 xenograft [6]; 3 mg/kg PO QD, Day 48): 51%
- Tumor response ΔT/ΔC (MCF-7 xenograft [6]; 10 mg/kg PO QD, Day 48): 25%
- Tumor response ΔT/ΔC (MCF-7 xenograft [6]; 20 mg/kg PO QD, Day 48): 2.4% and 2* %
- Tumor response in words (MCF-7 xenograft [6]): tumor stasis was achieved and maintained for 48 days
- Tumor response ΔT/ΔC (MCF-7 xenograft [7]; 5 mg/kg PO BID): 11* %
- Tumor response ΔT/ΔC (MCF-7 xenograft [7]; 10 mg/kg PO BID): −1* %
- Tumor response ΔT/ΔC (MCF-7 xenograft [7]; 10 mg/kg PO QD): 16* %
- Tumor response Regression (MCF-7 xenograft [7]; 20 mg/kg PO QD): 5* %
- Tumor response ΔT/ΔC (MCF-7 xenograft [7]; 20 mg/kg PO QD): −2* %
- Tumor response Regression (MCF-7 xenograft [7]; 40 mg/kg PO BID): 21* %
- Tumor response ΔT/ΔC (MCF-7 xenograft [7]; 40 mg/kg PO BID): −8* %
- Tumor response Regression (MCF-7 xenograft [7]; 80 mg/kg PO QD): 31* %
- Tumor response ΔT/ΔC (MCF-7 xenograft [7]; 80 mg/kg PO QD): −11* %
- Efficacy of QD dosing versus split-dose BID dosing (MCF-7 xenograft [7]; MCF-7 xenografts, FIG. 8A): equivalent efficacy
- Tumor response ΔT/ΔC (MCF-7 xenograft [8]; LSZ102 10 mg/kg QD PO, 10 mg/kg): 13%
- Increase in exposure (AUC) with high fat, high calorie meal compared to fasted (clinical): ~2 fold
- Exposure versus dose (clinical; po): dose-proportional increases in LSZ102 exposure
- Tmax (clinical; po): 2 to 3 h
- half-life (clinical; po): 3.1 to 5.6 h

SMILES: Cc1nc(NC(=O)N2CCC[C@H]2C(N)=O)sc1-c1ccnc(C(C)(C)C(F)(F)F)c1 [BYL719, reference compound]
- Tumor response ΔT/ΔC (MCF-7 xenograft [8]; BYL719 20 mg/kg QD PO): 38%

SMILES: CC/C(=C(\c1ccccc1)c1ccc(OCCN(C)C)cc1)c1ccccc1 [Tamoxifen, reference compound]
- Tumor response ΔT/ΔC (HBRX1298 xenograft; 40 mg/kg PO QD): 59%
- Tumor response Regression (MCF-7 xenograft [6]; [12]): 1* %
- Tumor response ΔT/ΔC (MCF-7 xenograft [6]; [12]): −0.8* %
- Tumor response in words (MCF-7 xenograft [6]): tumor stasis
- Tumor response Regression (MCF-7 xenograft [7]; 60 mg/kg PO 5QW): 11* %
- Tumor response ΔT/ΔC (MCF-7 xenograft [7]; 60 mg/kg PO 5QW): −4* %

SMILES: C[C@]12CC[C@@H]3c4ccc(O)cc4C[C@@H](CCCCCCCCC[S+]([O-])CCCC(F)(F)C(F)(F)F)[C@H]3[C@@H]1CC[C@@H]2O (some centres unmarked) [Fulvestrant, reference compound]
- ER protein levels (immunoblot) (ERα): significantly reduce ER protein levels
- IC50 [1]: 2.6 nM
- Tumor response ΔT/ΔC (HBRX1298 xenograft; 5 mg/mouse SC QWeek): 48* %
- Tumor response ΔT/ΔC (MCF-7 xenograft [6]; 5 mg/mouse SC QWeek, Day 48): 24* %
- Tumor response in words (MCF-7 xenograft [6]): suppression of growth
- Tumor response ΔT/ΔC (MCF-7 xenograft [7]; 5 mg/mouse SC QWeek): 18* %
